Here are results for 37 compounds from patent publication US12116343B2, “Inhibitors of APOL1 and methods of using same” (Vertex Pharmaceuticals Incorporated, priority 2020, dated 2024).

Bounds are passed on as bounds.

This test concerns the target T1, G1 APOL1 (Homo sapiens, UniProt O14791, I384M/S342G).
T1 construct: expressed in transfected cells
T1 sequence (O14791 28-398 S342G/I384M): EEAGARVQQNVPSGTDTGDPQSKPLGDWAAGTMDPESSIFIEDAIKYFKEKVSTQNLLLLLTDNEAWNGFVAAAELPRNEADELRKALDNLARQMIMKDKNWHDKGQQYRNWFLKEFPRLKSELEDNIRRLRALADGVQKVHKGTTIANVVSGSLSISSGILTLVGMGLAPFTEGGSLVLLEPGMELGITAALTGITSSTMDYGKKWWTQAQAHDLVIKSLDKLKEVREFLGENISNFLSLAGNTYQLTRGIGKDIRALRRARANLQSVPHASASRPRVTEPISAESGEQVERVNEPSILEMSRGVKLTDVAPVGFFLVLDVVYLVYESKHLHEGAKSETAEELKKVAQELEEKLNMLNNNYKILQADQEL
The test is described as follows: Acute APOL1 Thallium Assay with inducible stable clones of HEK 293 cells. Type of test: cell-based. As to conditions: HEK 293 T-Rex cells expressing G1 APOL1; read-out: Thallium Assay (IC50). In a few lines:
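Readout: Tl+-triggered fluorescence, FLIPR, reflecting potassium flux through APOL1 pores after cells take up an AM-ester thallium indicator. Cells: HEK T-Rex stable clone G1 DC3.25, APOL1 G1 induced by tetracycline, seeded 26000 per well.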
Consider `O=C([C@H]1C[C@H](c2c(-c3ccc(F)cc3)[nH]c3c(F)cc(F)cc32)C1)N(CCO)c1cnccn1` [Compound 132], for which the IC50 – broadly, the point on the concentration scale where inhibition reaches its midpoint – is > 1 µM.

Take `NC(=O)C1CCN(C(=O)[C@H]2C[C@H](c3c(-c4ccc(F)cc4)[nH]c4c(F)cc(F)cc43)C2)CC1` [Compound 133]: the IC50 is > 1 µM.

For `O=C([C@H]1C[C@H](c2c(-c3ccc(F)cc3)[nH]c3c(F)cc(F)cc32)C1)N1CCC(CCO)CC1` [Compound 134], the IC50 is > 1 µM.

Regarding `NC(=O)[C@@H]1CCN(C(=O)[C@H]2C[C@H](c3c(-c4ccc(F)cc4)[nH]c4c(F)cc(F)cc43)C2)C1` [Compound 135], the IC50 is > 1 µM.

Regarding `O=C([C@H]1C[C@H](c2c(-c3ccc(F)cc3)[nH]c3c(F)cc(F)cc32)C1)N1CC(OCC2CCCO2)C1` (stereo partly shown) [Compound 136], the IC50 was > 1 µM.

Consider `O=C([C@H]1C[C@H](c2c(-c3ccc(F)cc3)[nH]c3c(F)cc(F)cc32)C1)N1CC2(CC(O)C2)C1` [Compound 137], for which the IC50 is > 1 µM.

For the compound `O=C([C@H]1C[C@H](c2c(-c3ccc(F)cc3)[nH]c3c(F)cc(F)cc32)C1)N1CC(O)C(CO)C1` (stereo partly shown) [Compound 138], the IC50 is > 1 µM.

As to `O=C1CC[C@H](NC(=O)[C@H]2C[C@H](c3c(-c4ccc(F)cc4)[nH]c4c(F)cc(F)cc43)C2)C1` [Compound 139], the IC50 lay within 0.25 to 1 µM.

As for `O=C([C@H]1C[C@H](c2c(-c3ccc(F)cc3)[nH]c3c(F)cc(F)cc32)C1)N1CC[C@H](CO)C1` [Compound 140], the IC50 is > 1 µM.

For the compound `CC(C)[C@@H](CO)NC(=O)[C@H]1C[C@H](c2c(-c3ccc(F)cc3)[nH]c3c(F)cc(F)cc32)C1` [Compound 141], the IC50 is > 1 µM.

For the compound `C[C@H](CO)N(C)C(=O)[C@H]1C[C@H](c2c(-c3ccc(F)cc3)[nH]c3c(F)cc(F)cc32)C1` [Compound 142], the IC50 is 0.25 to 1 µM.

For the compound `O=C(NCC1(O)CCC1)[C@H]1C[C@H](c2c(-c3ccc(F)cc3)[nH]c3c(F)cc(F)cc32)C1` [Compound 143], the IC50 is > 1 µM.

As to `NC(=O)[C@H](CO)NC(=O)[C@H]1C[C@H](c2c(-c3ccc(F)cc3)[nH]c3c(F)cc(F)cc32)C1` [Compound 144], the IC50 was 0.25 to 1 µM.

Turning to `O=C([C@H]1C[C@H](c2c(-c3ccc(F)cc3)[nH]c3c(F)cc(F)cc32)C1)N1CCCCC1CO` (stereo partly shown) [Compound 145], the IC50 was > 1 µM.

As to `O=C([C@H]1C[C@H](c2c(-c3ccc(F)cc3)[nH]c3c(F)cc(F)cc32)C1)N1CCCC[C@H]1CO` [Compound 146], the IC50 was > 1 µM.

With `O=C([C@H]1C[C@H](c2c(-c3ccc(F)cc3)[nH]c3c(F)cc(F)cc32)C1)N1CCCC(CO)C1` (stereo partly shown) [Compound 147], the IC50 was > 1 µM.

With `O=C([C@H]1C[C@H](c2c(-c3ccc(F)cc3)[nH]c3c(F)cc(F)cc32)C1)N1CCOC(CO)C1` (stereo partly shown) [Compound 148], the half-inhibitory concentration (IC50) is > 1 µM.

In the case of `O=C([C@H]1C[C@H](c2c(-c3ccc(F)cc3)[nH]c3c(F)cc(F)cc32)C1)N1CCC[C@@H](O)C1` [Compound 149], the IC50 was 0.25 to 1 µM.

Consider `O=C([C@H]1C[C@H](c2c(-c3ccc(F)cc3)[nH]c3c(F)cc(F)cc32)C1)N1CCCC(O)C1` (stereo partly shown) [Compound 150], for which the IC50 was > 1 µM.

Consider `NC(=O)[C@H]1CCCN1C(=O)[C@H]1C[C@H](c2c(-c3ccc(F)cc3)[nH]c3c(F)cc(F)cc32)C1` [Compound 153], for which the IC50 was 0.25 to 1 µM.

As for `NC(=O)[C@H]1CCN(C(=O)[C@H]2C[C@H](c3c(-c4ccc(F)cc4)[nH]c4c(F)cc(F)cc43)C2)C1` [Compound 154], the IC50 was > 1 µM.

For the compound `C[C@@H](O)[C@H](CO)NC(=O)[C@H]1C[C@H](c2c(-c3ccc(F)cc3)[nH]c3c(F)cc(F)cc32)C1` [Compound 155], the IC50 was > 1 µM.

Take `O=C([C@H]1C[C@H](c2c(-c3ccc(F)cc3)[nH]c3c(F)cc(F)cc32)C1)N1CCCC[C@@H]1CCO` [Compound 156]: the IC50 is > 1 µM.

Regarding `O=C1CC[C@@H](NC(=O)[C@H]2C[C@H](c3c(-c4ccc(F)cc4)[nH]c4c(F)cc(F)cc43)C2)C1` [Compound 157], the IC50 was > 1 µM.

For `CN(CC(O)CO)C(=O)[C@H]1C[C@H](c2c(-c3ccc(F)cc3)[nH]c3c(F)cc(F)cc32)C1` (stereo partly shown) [Compound 158], the IC50 was > 1 µM.

Turning to `O=C1CCC(NC(=O)[C@H]2C[C@H](c3c(-c4ccc(F)cc4)[nH]c4c(F)cc(F)cc43)C2)C1` (stereo partly shown) [Compound 159], the IC50 was > 1 µM.

On to `C[C@@H](O)[C@@H](CO)NC(=O)[C@H]1C[C@H](c2c(-c3ccc(F)cc3)[nH]c3c(F)cc(F)cc32)C1` [Compound 160], for which the IC50 fell in the range of 0.25 to 1 µM.

Take `O=C([C@H]1C[C@H](c2c(-c3ccc(F)cc3)[nH]c3c(F)cc(F)cc32)C1)N1CCN[C@H](CO)C1` [Compound 161]: the IC50 is > 1 µM.

For the compound `O=C1NCC[C@@H]1NC(=O)[C@H]1C[C@H](c2c(-c3ccc(F)cc3)[nH]c3c(F)cc(F)cc32)C1` [Compound 162], the IC50 lay within 0.25 to 1 µM.

Turning to `O=C(N[C@@H](CO)C(F)(F)F)[C@H]1C[C@H](c2c(-c3ccc(F)cc3)[nH]c3c(F)cc(F)cc32)C1` [Compound 163], the IC50 was in the range of 0.25 to 1 µM.

Turning to `O=C(N[C@H](CO)C(F)(F)F)[C@H]1C[C@H](c2c(-c3ccc(F)cc3)[nH]c3c(F)cc(F)cc32)C1` [Compound 164], the IC50 lay within 0.25 to 1 µM.

For `O=C1C[C@H](NC(=O)[C@H]2C[C@H](c3c(-c4ccc(F)cc4)[nH]c4c(F)cc(F)cc43)C2)C(=O)N1` [Compound 165], the IC50 is < 0.25 µM.

Regarding `O=C1C[C@@H](NC(=O)[C@H]2C[C@H](c3c(-c4ccc(F)cc4)[nH]c4c(F)cc(F)cc43)C2)C(=O)N1` [Compound 166], the IC50 is < 0.25 µM.

On to `CC(O)CNC(=O)[C@H]1C[C@H](c2c(-c3ccc(F)cc3)[nH]c3c(F)cc(F)cc32)C1` (stereo partly shown) [Compound 167], for which the IC50 was 0.25 to 1 µM.

As for `O=C(NCc1cocn1)[C@H]1C[C@H](c2c(-c3ccc(F)cc3)[nH]c3c(F)cc(F)cc32)C1` [Compound 168], the IC50 was 0.25 to 1 µM.

For the compound `NC(=O)[C@H]1C[C@H](c2c(-c3ccc(F)cc3)[nH]c3c(F)cc(F)cc32)C1` [Compound 169], the IC50 fell in the range of 0.25 to 1 µM.

Turning to `O=C(NCc1cnco1)[C@H]1C[C@H](c2c(-c3ccc(F)cc3)[nH]c3c(F)cc(F)cc32)C1` [Compound 170], the IC50 fell in the range of 0.25 to 1 µM.
